Where no end group is shown, it is not given here.
Columns and labels:
[1] = tested on: WM35 cells; assay: Ethidium homodimer/Syto16 staining for cell death and nuclear morphology; format: cell-based
Protocol: (§1) Two cell lines, WM35 and HS294T, were plated out (50,000 cells per well, 24 well plate) and allowed to adhere. After 24 hours, the cells were treated for 4 hours with varying concentrations (5-80 μM) of Cisplatin (cis-platinum (II) diammine dichloride), a well-known chemotherapeutic agent that induces apoptosis. […] Adherent cell populations were then lifted from the solid support by trypsinization, centrifuged (400×g), and resuspended in PBS (0.125 ml). To observe the nuclear morphology and percent cell death in the WM35 and HS294T cell lines, cells from both floater and adherent populations were stained concurrently with Syto16 and ethidium homodimer (125 ul of cell suspension+2.5 ul 62.5 uM Syto16+[…] 100 ug/ml ethidium homodimer, 10 minutes at 37° C.). Ethidium homodimer is a membrane impermeant compound that fluoresces in the 617 nm range when it is intercalated with chromosomal DNA. Thus, in a mixed cell population containing both living and dead/dying cells, only those cells whose membranes have been compromised will stain with ethidium homodimer. In contrast, Syto 16 (Molecular Probes) is a membrane permeant dye that fluoresces in the 518 nm range when associated with chromosomal DNA. Together, these two dyes can be used to observe and distinguish the nuclear morphology in a population containing both living and dead/dying cells.

[2] = tested on: HS294T cells; assay: as above; format: cell-based
Protocol: as §1

[3] = tested on: WM35 (melanoma) cells; assay: Caspase-3 fluorescent substrate (Rhodamine 123-YVAD) and PI staining of floater cells, FACS; format: cell-based; settings: PI-minus floater cells, 15 μg/ml, 18-24 hours after induction
Protocol: WM35 cells were passed one day prior to induction of apoptosis and incubated for 24 hrs to allow the cells to attach to the substrate. The media was subsequently removed, the remaining adherent cells washed 1× with PBS, and subsequently exposed to Cisplatin (15 μg/ml) in fresh media. Eighteen to twenty-four hours after the induction of apoptosis, the floater cell population was collected, pelleted by centrifugation (400×g), and resuspended at 3×10^6 cells/ml in PBS. Samples were then split into four groups: (1) uninduced minus Rhodamine 123-YVAD (substrate), (2) uninduced plus substrate, (3) induced minus substrate, and (4) induced plus substrate. For samples exposed to Rhodamine 123-YVAD substrate, 50 ul of a pre-warmed (37° C.) cell suspension was combined with 25 ul of a stock substrate solution (Cellprobe). Samples were incubated for 60 minutes at 37° C. and then placed on ice prior to FACS analysis. In addition to caspase-3 staining, a replicate of each sample was stained with propidium iodide to determine the percentage of cells within the population whose membranes had been compromised and the overlap between PI and caspase-3 staining. […] Emission spectra were read at 515-535 nm wavelength using the FL1 (PMT2) 525 nm blue filter.

[4] = tested on: HT29 colon cancer cells; assay: HT29 floater assay (negative selection); format: cell-based; settings: for level of floaters relative to background: Sort VI clones, FIG. 10
Protocol: HT29 cells were tested for feasibility in the floater cell assay as follows. Briefly, six flasks were inoculated with 6.25×10^5 HT29 cells/flask on Day 0. On Day 1, after the cells had been allowed to adhere to the solid support, two of these flasks were infected with retroviral supernatant containing the retroviral vector pVT324, which includes a selectable drug resistant marker (e.g. neomycin), and which constitutively expresses a green fluorescent protein. Of the remaining four flasks, two were mock infected (i.e. exposed to all of the same reagents/conditions as flasks 1 and 2, minus the retrovirus, see “Example 3C”) and two were left undisturbed. On Day 2, this procedure was repeated (i.e. a double infection). On Day 3 (and subsequently on Day 5) one flask was selected from each of the three groups and processed by separating and counting the floater and adherent cell populations. In the case of the floater cell population, the media was collected, centrifuged at 200×g for 10 minutes, and resuspended in PBS prior to removing a sample for counting on a hemocytometer. For the adherent cell population, cells were first removed from the flask by trypsinization, centrifuged, and then processed for analysis in a fashion analogous to the floater cells. To determine the inherent background level of floater cells present in the population, the ratio of the number of floater cells to the total number of cells (adherent cells+floater cells) was analyzed on both the Day 3 and Day 5 flasks that had not been manipulated. These numbers were compared with the analogous numbers taken from infected and mock-infected flasks to determine whether the retrovirus or transfection procedures altered background floater rates. To determine the susceptibility of HT29 cells to retroviral infection, the fraction of cells that expressed GFP in pVT324 infected flasks was calculated using flow cytometry.
Twenty T175 flasks were seeded with 2.2×10^6 HT29 cells/flask in McCoy's 5A media (Gibco BRL) modified with 10% FBS. On Day 1, each flask was infected (4 μg/ml polybrene, 50% volume) with a retroviral supernatant containing a commercially obtained brain cDNA library (“Example Three” above). On Day 2 the media was changed. On Day 3 both the floater and adherent cell populations were collected (separately) from the twenty flasks. Approximately 652,500 floaters were isolated from a theoretical background of 4.2×10^7 adherents (1.5% floaters) and frozen down for future studies. […] Additional floater cells were then collected Day 5, where the collection and counting procedures were repeated and some 7.8×10^6 floaters and 7.6×10^8 adherents were counted (1.03% floaters). […] The floater populations of Days 3 and 5 were then combined and readied for a genomic DNA prep using a QIAamp kit (Qiagen) following standard procedures. Briefly, some 9×10^6 floater cells in PBS were lysed to release gDNA. This material was passed over a QIAamp column that was then washed several times to remove protein and RNA contaminants. Twenty-seven micrograms of genomic DNA were then eluted from the columns with dH2O and treated with RNAse A to eliminate any RNA contamination. This gDNA was then subjected to PCR procedures to amplify the library sequences encoded therein. […]

[5] = tested on: T47D cells; assay: Kill curve in T47D cells (cell number after 5 days); format: cell-based
Protocol: Approximately 250,000 cells were seeded into each well of a six well plate. Cells were then grown in media containing camptothecin of varying concentrations (0-10 uM). After 5 days, the number of cells remaining in each of the camptothecin-treated wells was compared with untreated controls. From these experiments, it was determined that camptothecin concentrations ranging from 1-4 nM had no effect on T47D cell number over the course of the 5 days of treatment. […] In order to determine whether this level of treatment is concomitantly increasing the number of floaters in the population, several flasks are seeded with T47D cells and then treated with 1-4 nM concentrations of camptothecin. After a period of three to five days, the media is collected and the number of floater cells are counted and compared to the total number of cells in the flask (floaters+adherents).

[6] = tested on: ecdysone receptor (pVgRXR); assay: Induction of GFP fluorescence from ecdysone-regulated vector pBIGFII in ECR293 cells; format: cell-based; settings: 5 μM, cells containing pBIGFII and pVgRXR
From the text: As an alternative to the constitutive pCLMFG vector, an inducible construct that can be regulated by ecdysone was constructed as follows. The PmII/XhoI fragment from pVT324 was inserted into the MCS of the PIND vector (Invitrogen). This product was then digested with BgIII, blunt-ended and inserted into a pBabe-K-ras vector (pVT313-based) that had been digested with BamHI/XhoI and blunted (Klenow Fragment). The resulting vector was designated pBabe-Forward-1. The XbaI fragment of pVT324 was then inserted into the compatible site of pBabe-Forward-1. The resulting vector was designated pBIGFII. Vector pBIGFII was subsequently transfected into cells (ECR293, Invitrogen) that contain an endogenous copy of the ecdysone receptor (pVgRXR).

[7] = biological target: epitope in the mitochondrial membrane that is exposed only in cells that are undergoing apoptosis (Jurkat cells, permeabilized with digitonin); assay: flow cytometry, digitonin-permeabilized Jurkat cells, 21 hours in anti-FAS antibody (1 ug/ml)
[8] = biological target: epitope in the mitochondrial membrane that is exposed only in cells that are undergoing apoptosis (Jurkat cells, permeabilized with digitonin); assay: flow cytometry, digitonin-permeabilized Jurkat cells, 0 hours in anti-FAS antibody
[9] = tested on: HuVECs 9F0293 cells; assay: Time course of detachment and PI staining of HuVECs (9F0293); format: cell-based, Human; settings: 2 ug/ml
Protocol: To determine the time course in which dead and/or dying HuVECs detach from the solid support in response to a cytotoxic agent, 9F0293 cells were plated and subsequently treated with puromycin (2 ug/ml). Both floater and adherent cell populations were then collected at varying times (t=4, 7, 9, 16, 20, and 24 hours) and analyzed to determine (a) the percent PI^+ cells in the floater population and (b) the fraction of cells which became floaters. […] The fraction of floaters that stained with PI (PI^+ population) increased with time.

[10] = tested on: HT29 cells; assay: Induction of apoptosis in HT29 cells (detachment, nuclear morphology); format: cell-based; settings: after 48 hours of treatment
[11] = floater population, 5-80 μM for 4 hours, 18-24 hrs later

Molecule: N.N.[Cl-].[Cl-].[Pt+2] [Cisplatin, cis-platinum (II) diammine dichloride]
- ethidium homodimer staining of adherent cell population ([1]; adherent population): < 10%
- ethidium homodimer staining of floaters [1, 11]: 45-50%
- condensed or fragmented nuclei in floaters ([1]; floaters, higher concentrations): 40-50%
- ethidium homodimer staining of adherent cell population ([2]; adherent population): < 10%
- cells showing condensed or fragmented nuclei ([2]; ethidium homodimer stained floater cells, fluorescent microscopy): < 20%
- floater cells stained with ethidium homodimer [2, 11]: greater than 50%
- caspase-3 positive cells [3]: 94.6%

Molecule: 0328: cytotoxic agent isolated from clone 0328, SEQ ID NO: 23 (XXAVAWLGSTGMTCGAQRLRSLR; X: residue not identified in the source) [compound 0328]
- level of floaters relative to background [4]: increased levels of floaters that were statistically significant relative to background
- floater rate ([4]; individual clone reintroduced into HT29 cells): 2%

Molecule: CC[C@@]1(O)C(=O)OCc2c1cc1n(c2=O)Cc2cc3ccccc3nc2-1 [camptothecin]
- cell number relative to the untreated control ([5]; 10 nM, 5 days): roughly one third
- concentrations with no effect on cell number ([5]; 5 days of treatment): 1 to 4 nM

Molecule: CC(C)CC[C@@H](O)[C@](C)(O)[C@H]1CC[C@@]2(O)C3=CC(=O)[C@@H]4C[C@@H](O)[C@@H](O)C[C@]4(C)[C@H]3CC[C@]12C [ponesterone A]
- increase of the level of fluorescence [6]: approximately thirty

Molecule: Apo2.7 monoclonal antibody (Coulter Immunotech), fluorescent R-phycoerythrin-cyanin labeled
- percent of population labeled [7]: 81%
- percent of population labeled [8]: 4%

Molecule: COc1ccc(C[C@H](N)C(=O)N[C@H]2[C@@H](O)[C@H](n3cnc4c(N(C)C)ncnc43)O[C@@H]2CO)cc1 [puromycin]
- time point at which the majority of cells detached [9]: 16 h
- floater cells in the PI+ gate ([9]; by 20 hours): nearly all

Molecule: CSc1ccc(/C=C2/C(C)=C(CC(=O)O)c3cc(F)ccc32)cc1 [sulindac sulfide]
- detachment and apoptotic morphology [10]: majority of the cells had detached from the dish and showed typical apoptotic morphology

B1: BID: BID clone among the Sort VI clones tested in the HT29 floater assay (FIG. 10) (protein, UniProt P55957 1-195, looked up)
BH3-interacting domain death …: MDCEVNNGSSLRDECITNLLVFGFLQSCSDNSFRRELDALGHELPVLAPQWEGYDELQTDGNRSSHSRLGRIEADSESQEDIIRNIARHLAQVGDSMDRSIPPGLVNGLALQLRNTSRSEEDRNRDLATALEQLLQAYPRDMEKEKTMLVLALLLAKKVASHTPSLLRDVFHTTVNFINQNLRTYVRSLARNGMD
- level of floaters relative to background [4]: increased levels of floaters that were statistically significant relative to background

B2: 0195: cytotoxic agent isolated from clone 0195, SEQ ID NO: 22 (protein)
chain: PEILSRSHLLLAGQTLIGVVAMVVEAEGEEDPWAVEAMEVVAVVVVAEEDFPVEVVAVEDSSELVTGSVLIPPVRI
- level of floaters relative to background [4]: increased levels of floaters that were statistically significant relative to background

— patent US6582899B1, “Methods for identifying agents that cause a lethal phenotype, and agents thereof” (Deltagen Proteomics, Inc., priority 2000, dated 2003)
